Reference: PubChem BioAssay (NCI)
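Assay format: 96-well plates, 48-hour exposure. Here, GI50 denotes the concentration required for 50% inhibition of growth. TGI: total growth inhibition.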

Experiments:
Assay in all cases: NCI anticancer screen, dose series, 48 h
[1] = test system: 786-0 renal
[2] = test system: A498 renal
[3] = test system: A549 NSCLC
[4] = test system: ACHN renal
[5] = test system: BT-549 breast
[6] = test system: CAKI-1 renal
[7] = test system: CCRF-CEM leukemia
[8] = test system: COLO 205 colon
[9] = test system: DU-145 prostate
[10] = test system: EKVX NSCLC
[11] = test system: HCC-2998 colon
[12] = test system: HCT-116 colon
[13] = test system: HCT-15 colon
[14] = test system: HL-60(TB) leukemia
[15] = test system: HOP-62 NSCLC
[16] = test system: HOP-92 NSCLC
[17] = test system: HS 578T breast
[18] = test system: HT29 colon
[19] = test system: IGROV1 ovarian
[20] = test system: K-562 leukemia
[21] = test system: KM12 colon
[22] = test system: LOX IMVI melanoma
[23] = test system: M14 melanoma
[24] = test system: MALME-3M melanoma
[25] = test system: MCF7 breast
[26] = test system: MDA-MB-231 breast
[27] = test system: MDA-MB-435
[28] = test system: MOLT-4 leukemia
[29] = test system: NCI-H226 lung
[30] = test system: NCI-H23 lung
[31] = test system: NCI-H460 lung
[32] = test system: NCI-H522 lung
[33] = test system: NCI/ADR-RES ovarian
[34] = test system: OVCAR-3 ovarian
[35] = test system: OVCAR-4 ovarian
[36] = test system: OVCAR-5 ovarian
[37] = test system: OVCAR-8 ovarian
[38] = test system: PC-3 prostate
[39] = test system: RPMI-8226 leukemia
[40] = test system: RXF 393 renal
[41] = test system: SF-268 CNS
[42] = test system: SF-295 CNS
[43] = test system: SF-539 CNS
[44] = test system: SK-MEL-2 melanoma
[45] = test system: SK-MEL-28 melanoma
[46] = test system: SK-MEL-5 melanoma
[47] = test system: SK-OV-3 ovarian
[48] = test system: SN12C renal
[49] = test system: SNB-19 CNS
[50] = test system: SNB-75 CNS
[51] = test system: SW-620 colon
[52] = test system: T-47D breast
[53] = test system: TK-10 renal
[54] = test system: U251 CNS
[55] = test system: UACC-257 melanoma
[56] = test system: UACC-62 melanoma
[57] = test system: UO-31 renal

COC(=O)Nc1nc2ccc(Sc3ccc(NC(=O)Nc4cc(C(F)(F)F)ccc4F)cc3)cc2[nH]1
GI50 [1]: 5.64 µM | TGI [1]: 13.8 µM | GI50 [2]: 2.71 µM | TGI [2]: 10.7 µM | GI50 [3]: 3.01 µM | TGI [3]: 7.06 µM | GI50 [4]: 3.58 µM | TGI [4]: 10.2 µM | GI50 [5]: 7.86 µM | TGI [5]: 24.2 µM | GI50 [6]: 3.86 µM | TGI [6]: 18.8 µM | GI50 [7]: 3.3 µM | TGI [7]: 12.5 µM | GI50 [8]: 3.67 µM | TGI [8]: 9.29 µM | GI50 [9]: 4.15 µM | TGI [9]: 8.27 µM | GI50 [10]: 4 µM | TGI [10]: 21.8 µM | GI50 [11]: 3.96 µM | TGI [11]: 13.1 µM | GI50 [12]: 1.37 µM | TGI [12]: 4.67 µM | GI50 [13]: 1.62 µM | TGI [13]: 8.19 µM | GI50 [14]: 1.46 µM | TGI [14]: 12.3 µM | GI50 [15]: 3.73 µM | TGI [15]: 9.56 µM | GI50 [16]: 2.53 µM | TGI [16]: 10.3 µM | GI50 [17]: 1.35 µM | TGI [17]: 7.24 µM | GI50 [18]: 1.4 µM | TGI [18]: 4.54 µM | GI50 [19]: 3.52 µM | TGI [19]: 11.1 µM | GI50 [20]: 0.739 µM | TGI [20]: 5.89 µM | GI50 [21]: 0.113 µM | TGI [21]: 3.99 µM | GI50 [22]: 1.5 µM | TGI [22]: 6.16 µM | GI50 [23]: 2.01 µM | TGI [23]: 8.26 µM | GI50 [24]: 2.99 µM | TGI [24]: 23.6 µM | GI50 [25]: 0.988 µM | TGI [25]: 5.33 µM | GI50 [26]: 2.84 µM | TGI [26]: 9.32 µM | GI50 [27]: 0.605 µM | TGI [27]: 2.71 µM | GI50 [28]: 3.26 µM | TGI [28]: 17 µM | GI50 [29]: 3.81 µM | TGI [29]: 20.2 µM | GI50 [30]: 3.84 µM | TGI [30]: 11.9 µM | GI50 [31]: 2.73 µM | TGI [31]: 6.79 µM | GI50 [32]: 2.05 µM | TGI [32]: 6.27 µM | GI50 [33]: 2.74 µM | TGI [33]: 11.5 µM | GI50 [34]: 3.05 µM | TGI [34]: 6.26 µM | GI50 [35]: 3.64 µM | TGI [35]: 10.7 µM | GI50 [36]: 3.5 µM | TGI [36]: 9.24 µM | GI50 [37]: 4.23 µM | TGI [37]: 11.6 µM | GI50 [38]: 3.38 µM | TGI [38]: 11.1 µM | GI50 [39]: 7.14 µM | TGI [39]: 24.1 µM | GI50 [40]: 3.29 µM | TGI [40]: 8.05 µM | GI50 [41]: 3.89 µM | TGI [41]: 9.6 µM | GI50 [42]: 1.96 µM | TGI [42]: 7.52 µM | GI50 [43]: 3.23 µM | TGI [43]: 7.98 µM | GI50 [44]: 3.15 µM | TGI [44]: 10.6 µM | GI50 [45]: 2.81 µM | TGI [45]: 16.5 µM | GI50 [46]: 0.95 µM | TGI [46]: 11.7 µM | GI50 [47]: 5.1 µM | TGI [47]: 14.3 µM | GI50 [48]: 3.82 µM | TGI [48]: 11 µM | GI50 [49]: 6.98 µM | TGI [49]: 25 µM | GI50 [50]: 3.32 µM | TGI [50]: 10.9 µM | GI50 [51]: 1.43 µM | TGI [51]: 5.52 µM | GI50 [52]: 4.43 µM | TGI [52]: 11.2 µM | GI50 [53]: 5.11 µM | TGI [53]: 11.3 µM | GI50 [54]: 3.27 µM | TGI [54]: 7.28 µM | GI50 [55]: 4.63 µM | TGI [55]: 25 µM | GI50 [56]: 1.85 µM | TGI [56]: 8.38 µM | GI50 [57]: 5.9 µM | TGI [57]: 19.8 µM
